Assay results as given in patent US12447171B2 (CELGENE QUANTICEL RESEARCH, INC., priority 2019, dated 2025).

Key:
[1] = test system: activating transcription factor 3 (ATF3); assay: ATF3 expression (RNAseq, real-time PCR) in MV4-11 cells; assay type: cell-based
Description: After treatment, cells were recovered, washed once in PBS, and flash frozen as cell pellets. Cell pellets were sent to Canopy Biosciences for RNA extraction and library preparation and sequencing. RNA was extracted using the Qiagen RNeasy Mini Kit according to manufacturer's instructions. A modified protocol was used to preserve miRNA species. Total RNA Seq libraries were prepared using 200 ng of total RNA and the NEBNext Ultra II Directional Library prep kit. rRNA depletion was performed using an RNase-H based method (New England Biolabs, Ipswich, MA). MCL1 RNA levels in other cell lines were quantified by RNASeq using standard methods.
Libraries were multiplexed and sequenced using Illumina HiSeq. All gene counts were then imported into the R/Bioconductor package EdgeR and TMM normalization size factors were calculated to adjust for samples for differences in library size. Ribosomal genes and genes not expressed in the smallest group size minus one samples greater than one count-per-million were excluded from further analysis. […] Global perturbations in known Gene Ontology (GO) terms and KEGG pathways were detected using the R/Bioconductor package GAGE to test for changes in expression of the reported log 2 fold-changes reported by Limma in each term versus the background log 2 fold-changes of all genes found outside the respective term. […]

MCL-1 = assay: Western blot of MCL-1 in AML cell lines; assay type: cell-based
Description: Lysates were quantified using a bicinchoninic acid (BCA) kit (Piece/Thermo Fisher, Waltham, MA). 20 to 30 μg protein was resolved on a 4-12% SDS-PAGE gel, transferred to PVDF membranes (80V/90 minute by wet-transfer), and blocked with Oddysey TBS blocking buffer for 1 hour and then probed with appropriate primary antibodies overnight at 4° C. using dilution as recommended by manufacturer. Membranes were washed three times for a total of 30 minutes and then incubated with secondary antibodies at room temperature in the dark for 1 hour. After another three washes, Odyssey infrared imaging system and companion software (LI-COR biosciences, Lincoln, NE, USA) were used to scan immunoblot membranes and to quantify band intensity according to the manufacturer's instructions. The ratio of proteins of interest to loading control in treated samples was normalized to the corresponding ratio in untreated cells. Antibodies used for immunoblotting were purchased from the following sources: BCL-2 (sc-7382), MCL1- (sc-819) from Santa Cruz Biotechnology (Dallas, TX, USA, Bim (2819), caspase-3 (9664) from Cell Signaling Technology; beta-Actin (A2228) from Sigma-Aldrich; DNMTI (ab188453) from AbCam; TRDye 680 goat anti-rabbit and IRDye 800 goat anti-mouse secondary antibodies (#925-68073 and #925-32212) were purchased from Li-COR Biosciences (Lincoln, NE).

BaF-FLT3(WT) = assay: Cell viability assay (Cell Titer-Glo), BaF3 cells expressing FLT3; assay type: cell-based; details: Mus musculus
MV4-11 xenograft models = assay: Disseminated MV4-11 xenograft survival study; assay type: in vivo; details: MV4-11, NCG mice, vehicle=29.5
Description: LEED models oral administration of AZA, while HELD models intravenous or subcutaneous administration of AZA.
On each day of dosing, an appropriate amount of gilteritinib was dissolved in 0.5% methylcellulose in DI water to yield a dosing solution at 0.4 mg/mL. Each week, an appropriate amount of venetoclax was dissolved in 10% ethanol:30% PEG400:60% phosal 50 propylene glycol to yield a dosing solution at 10 mg/mL. […] Each test mouse received 5×10^6 MOLM-13 cells or 10^7 MV4-11 cells (0.2 mL cell suspension) by tail vein injection. Dosing was initiated three days after tumor cell inoculation, which was designated as Day 1 of the study. […] […] Vehicle was administered both IP and PO. The dosing volume for all treatments was 10 mL/kg, scaled to the weight of each individual animal.
Animals were monitored individually for an endpoint of moribundity due to progression of the leukemia. Full hind limb paralysis, severe ocular proptosis, or moribundity was considered sufficient for euthanasia due to tumor progression. Moribund animals were defined as sick animals unable to reach food and water. These deaths were classified as death on survival study. The time to endpoint (TTE), in days, was recorded for each mouse that died of its disease or was euthanized due to extensive tumor progression. […] An animal classified as having died from treatment-related (TR) causes was assigned a TTE value equal to the day of death. An animal classified as having died from non-treatment-related (NTR) causes, or used for sampling before endpoint, was excluded from TTE calculations and all further analyses. The median TTE value was calculated for each group. The median TTE of treated mice was expressed as a percentage of the median TTE of the control mice (% T/C), and the increase in life span (ILS) was calculated as: ILS=% T/C−100%, where T=median TTE treated, and C=median TTE control. Thus, if T=C, ILS=0%.
Animals were weighed daily on Days 1-5, then twice per week until the completion of the study. […] Individual body weight loss was monitored as per protocol and any animal that exceeded the limits for acceptable body weight loss was euthanized. Group mean body weight loss also was monitored as per protocol. Dosing was suspended in any group that exceeded the limits for acceptable mean body weight loss. If mean body weight recovered, then dosing may be resumed in that group, but at a lower dosage or less frequent dosing schedule. […] Survival was analyzed by the Kaplan-Meier method, based on TTE values. The logrank (Mantel-Cox) and Gehan-Breslow-Wilcoxon tests determined the significance of the difference between the overall survival experiences (survival curves) of two groups, based on TTE values.

Q: How did the “ATF3 expression (real-time PCR)” value ([1]; MV4-11, 0.3 μM 5-azacytidine, 24 or 48 hours) turn out when `Nc1ncn([C@@H]2O[C@H](CO)[C@@H](O)[C@H]2O)c(=O)n1` [5-azacytidine, 4-amino-1-B-D-ribofuranosyl-1,3,5-triazin-2(1H)-one] was run?
A: The value was “not sufficient to induce ATF3 expression”.

Q: What about the ATF3 expression increase ([1]; RNAseq, MV4-11, 1 μM, 48 hours) of the same molecule?
A: The ATF3 expression increase was “two-fold”.

Q: What about the “start of MCL-1 degradation after treatment” value (“start of MCL-1 degradation” below) (MCL-1; KG1α) of the same molecule?
A: The value was 6 h.

Q: And the “start of MCL-1 degradation” value (MCL-1; MV4-11)?
A: The value was 6 h.

Q: And the MCL-1 degradation (MCL-1; OCI-AML2)?
A: Its MCL-1 degradation is “did not lead to any degradation of MCL-1”.

Q: What about the “start of MCL-1 degradation” value (MCL-1; THP-1) of the same molecule?
A: The value was 16 h.

Q: And the “extent of MCL-1 degradation” value (MCL-1; THP-1, by 24 hours)?
A: The value was “incomplete degradation by 24 hours”.

Q: And the EC50 (BaF-FLT3(WT))?
A: The EC50 was 189 nM.

Q: And the Median survival (MV4-11 xenograft models; HELD 5-azacytidine 3 mg/kg qd×5, alone or with venetoclax or midostaurin 100 mg/kg qd×21)?
A: Its Median survival is 35.

Q: What about the Median survival (MV4-11 xenograft models; LEED 5-azacytidine 1 mg/kg qd×5×3, alone or with venetoclax or midostaurin 100 mg/kg qd×21) of the same molecule?
A: Its Median survival is 35.
